Structures are written as SMILES. Where a name gives a salt, the structure may show the parent alone.

Common to all, as to format: cell-based
In one experiment the target is T1, human TLR7 (Homo sapiens, UniProt Q9NYK1).
T1 construct: host or cells: HEK-Blue cells
T1 sequence (Q9NYK1 27-1049): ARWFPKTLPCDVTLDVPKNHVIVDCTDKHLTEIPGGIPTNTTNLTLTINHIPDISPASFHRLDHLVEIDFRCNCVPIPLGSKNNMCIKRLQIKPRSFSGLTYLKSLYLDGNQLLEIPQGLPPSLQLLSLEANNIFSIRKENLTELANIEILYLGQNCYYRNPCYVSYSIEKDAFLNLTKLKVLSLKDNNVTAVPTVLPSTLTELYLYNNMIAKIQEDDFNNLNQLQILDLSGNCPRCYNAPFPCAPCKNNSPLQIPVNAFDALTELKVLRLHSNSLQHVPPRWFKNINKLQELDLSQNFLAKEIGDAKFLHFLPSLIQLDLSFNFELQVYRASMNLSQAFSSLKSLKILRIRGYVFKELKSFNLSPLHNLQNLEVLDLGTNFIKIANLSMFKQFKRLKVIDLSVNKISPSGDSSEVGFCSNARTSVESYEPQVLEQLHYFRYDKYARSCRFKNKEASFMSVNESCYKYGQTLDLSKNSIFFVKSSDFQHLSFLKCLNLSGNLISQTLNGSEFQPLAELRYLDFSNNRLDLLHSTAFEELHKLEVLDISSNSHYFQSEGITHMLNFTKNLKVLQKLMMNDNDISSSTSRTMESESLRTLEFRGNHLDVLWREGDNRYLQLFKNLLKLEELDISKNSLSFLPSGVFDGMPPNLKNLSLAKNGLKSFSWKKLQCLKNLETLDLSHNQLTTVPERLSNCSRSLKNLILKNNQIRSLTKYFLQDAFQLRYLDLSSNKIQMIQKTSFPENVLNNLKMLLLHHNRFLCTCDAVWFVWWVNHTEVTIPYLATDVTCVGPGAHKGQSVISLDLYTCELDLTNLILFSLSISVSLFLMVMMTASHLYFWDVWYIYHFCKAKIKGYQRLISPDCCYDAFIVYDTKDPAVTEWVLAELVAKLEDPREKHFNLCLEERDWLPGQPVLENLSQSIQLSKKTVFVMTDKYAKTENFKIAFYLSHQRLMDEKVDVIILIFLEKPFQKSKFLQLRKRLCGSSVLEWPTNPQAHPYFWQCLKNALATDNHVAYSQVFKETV
Put plainly: TLR7 inhibition reporter assay (HEK-Blue SEAP reporter). The conditions noted are these: HEK-Blue cells overexpressing human TLR7; gardiquimod 7.5 μM; 22 hour incubation. In outline:
(§1)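 Human TLR7/8/9 HEK-Blue reporter lines; dose range 0.05 nM–50 μM; 30 min RT preincubation; stimulus gardiquimod 7.5 μM / R848 15.9 μM / ODN2006 5 nM respectively; 22 h, 37 °C; SEAP detected colorimetrically.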

The next experiment has as its target T2, human TLR8 (Homo sapiens, UniProt Q9NR97).
T2 construct: host or cells: HEK-Blue cells
T2 sequence (Q9NR97 27-1041): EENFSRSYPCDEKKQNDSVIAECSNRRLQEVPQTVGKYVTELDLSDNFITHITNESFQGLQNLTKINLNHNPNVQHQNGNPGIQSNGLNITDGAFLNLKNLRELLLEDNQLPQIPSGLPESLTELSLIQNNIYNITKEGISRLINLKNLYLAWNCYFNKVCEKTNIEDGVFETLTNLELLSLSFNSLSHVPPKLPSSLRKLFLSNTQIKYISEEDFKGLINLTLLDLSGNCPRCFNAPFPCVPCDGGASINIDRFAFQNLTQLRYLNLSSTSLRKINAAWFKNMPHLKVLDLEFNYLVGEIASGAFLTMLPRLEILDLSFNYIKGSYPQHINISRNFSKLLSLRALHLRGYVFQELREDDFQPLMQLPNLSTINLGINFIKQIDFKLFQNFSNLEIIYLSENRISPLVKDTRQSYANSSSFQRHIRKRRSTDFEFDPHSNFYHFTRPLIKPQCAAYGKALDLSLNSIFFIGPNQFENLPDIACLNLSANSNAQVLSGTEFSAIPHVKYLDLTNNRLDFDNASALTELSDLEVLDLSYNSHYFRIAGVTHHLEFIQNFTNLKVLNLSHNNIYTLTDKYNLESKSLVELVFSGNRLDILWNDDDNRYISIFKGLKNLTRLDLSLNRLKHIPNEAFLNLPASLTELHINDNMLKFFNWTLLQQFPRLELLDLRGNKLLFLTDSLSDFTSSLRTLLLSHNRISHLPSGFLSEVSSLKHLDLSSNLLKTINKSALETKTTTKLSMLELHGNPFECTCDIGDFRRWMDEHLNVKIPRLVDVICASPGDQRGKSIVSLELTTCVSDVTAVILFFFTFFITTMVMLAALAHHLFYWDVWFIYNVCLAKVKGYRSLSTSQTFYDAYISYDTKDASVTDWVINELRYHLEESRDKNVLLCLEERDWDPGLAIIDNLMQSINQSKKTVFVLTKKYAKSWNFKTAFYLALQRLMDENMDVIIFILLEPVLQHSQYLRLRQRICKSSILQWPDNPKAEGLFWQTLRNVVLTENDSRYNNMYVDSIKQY
Put plainly: TLR8 inhibition reporter assay (HEK-Blue SEAP reporter). Conditions: HEK-Blue cells overexpressing human TLR8; R848 15.9 μM; 22 hour incubation. In outline:
as §1
Background: Reporter assays use an easily measured gene product as a stand-in for the process of interest.

For another experiment, the target named is T3, human TLR9 (Homo sapiens, UniProt Q9NR96).
T3 construct: host or cells: HEK-Blue cells
T3 sequence (Q9NR96 26-1032): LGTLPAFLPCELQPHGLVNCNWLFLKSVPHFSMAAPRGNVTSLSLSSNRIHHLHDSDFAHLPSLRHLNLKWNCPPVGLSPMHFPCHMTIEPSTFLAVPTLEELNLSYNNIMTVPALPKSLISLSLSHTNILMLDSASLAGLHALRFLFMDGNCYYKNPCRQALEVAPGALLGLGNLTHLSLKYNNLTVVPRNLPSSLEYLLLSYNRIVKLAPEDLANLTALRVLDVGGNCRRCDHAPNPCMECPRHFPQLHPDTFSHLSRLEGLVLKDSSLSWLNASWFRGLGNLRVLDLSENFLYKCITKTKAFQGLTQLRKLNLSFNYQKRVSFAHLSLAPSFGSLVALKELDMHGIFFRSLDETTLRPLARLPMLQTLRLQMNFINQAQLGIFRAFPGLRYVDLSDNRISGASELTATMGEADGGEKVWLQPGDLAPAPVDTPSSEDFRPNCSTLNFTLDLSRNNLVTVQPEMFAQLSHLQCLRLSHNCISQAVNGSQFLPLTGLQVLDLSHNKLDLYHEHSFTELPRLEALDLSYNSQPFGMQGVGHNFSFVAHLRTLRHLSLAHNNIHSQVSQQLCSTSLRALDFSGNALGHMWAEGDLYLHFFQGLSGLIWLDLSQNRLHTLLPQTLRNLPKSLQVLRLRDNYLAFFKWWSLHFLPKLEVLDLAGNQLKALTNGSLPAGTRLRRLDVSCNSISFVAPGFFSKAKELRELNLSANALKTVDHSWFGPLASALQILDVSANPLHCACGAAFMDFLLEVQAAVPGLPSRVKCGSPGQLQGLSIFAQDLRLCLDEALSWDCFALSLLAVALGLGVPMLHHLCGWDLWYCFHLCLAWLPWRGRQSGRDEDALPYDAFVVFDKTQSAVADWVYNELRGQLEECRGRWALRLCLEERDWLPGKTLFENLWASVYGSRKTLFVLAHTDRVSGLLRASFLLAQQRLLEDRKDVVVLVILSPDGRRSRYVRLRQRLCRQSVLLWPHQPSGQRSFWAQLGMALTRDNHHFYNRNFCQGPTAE
Put plainly: TLR9 inhibition reporter assay (HEK-Blue SEAP reporter). Conditions: HEK-Blue cells overexpressing human TLR9; ODN2006 5 nM; 22 hour incubation. In outline:
as §1

A word on the IC50: it is the point on the concentration scale where inhibition reaches its midpoint. Higher therefore signals weaker potency in that assay. Regarding `COc1ccc(-c2[nH]c3ccc(N4CCC(N(C)C)C4=O)cc3c2C(C)C)cc1OC` (stereo not drawn) [Example 4, 1-(2-(3,4-dimethoxyphenyl)-3-isopropyl-1H-indol-5-yl)-3-(dimethylamino)pyrrolidin-2-one], the figures for the IC50 at human TLR7, at human TLR8 and on human TLR9 were 67 nM, 81 nM and 9210 nM, respectively.

As to `CCc1c(-c2ccnc(OC)c2)[nH]c2ccc(N3CCN(C4CCN(C)CC4)CC3)cc12` [Example 143, 3-ethyl-2-(2-methoxypyridin-4-yl)-5-(4-(1-methylpiperidin-4-yl)piperazin-1-yl)-1H-indole], the half-inhibitory concentration (IC50) on human TLR7 turned out to be 75 nM; against human TLR8 it was 10 nM; against human TLR9 it was 839 nM.

Regarding `CCc1c(-c2ccc(OC)c(OC)c2)[nH]c2ccc(N3CCC4(CC3)CCN(C(C)C)CC4)cc12` [Example 183, 3-(2-(3,4-dimethoxyphenyl)-3-ethyl-1H-indol-5-yl)-9-isopropyl-3,9-diazaspiro[5.5]undecane], the IC50 turned out to be 95 nM at human TLR7, 59 nM against human TLR8 and 672 nM at human TLR9.

On to `CCc1c(-c2ccc(OC)c(OC)c2)[nH]c2ccc(N3CCC(C4CCNCC4)CC3)cc12` [Example 131, 5-([4,4′-bipiperidin]-1-yl)-2-(3,4-dimethoxyphenyl)-3-ethyl-1H-indole], for which the concentration for half-maximal inhibition (IC50) on human TLR7 came to 187 nM; against human TLR8, 132 nM; against human TLR9, 648 nM.

With `COc1ccc(-c2[nH]c3ccc(N4CCC(NC5CCN(C)CC5)CC4)cc3c2C(C)C)cc1OC` [Example 79, 1-(2-(3,4-dimethoxyphenyl)-3-isopropyl-1H-indol-5-yl)-N-(1-methylpiperidin-4-yl)piperidin-4-amine], the IC50 on human TLR7 was determined as 9.8 nM; at human TLR8 it was 4.7 nM; against human TLR9, 640 nM.

With `COc1ccc(-c2[nH]c3ccc(N4CCNCC4)cc3c2C(C)C)cc1OC` [Example 126, 2-(3,4-dimethoxyphenyl)-3-isopropyl-5-(piperazin-1-yl)-1H-indole, TFA Salt], the values for the IC50 at human TLR7, against human TLR8 and at human TLR9 were 53 nM, 14 nM and 4740 nM, respectively.

For `COc1ccc(-c2[nH]c3ccc(N4CCC(=O)N(CCN(C)C)CC4)cc3c2C(C)C)cc1OC` [Example 107, 1-(2-(3,4-dimethoxyphenyl)-3-isopropyl-1H-indol-5-yl)-4-(2-(dimethylamino)ethyl)-1,4-diazepan-5-one], the results for the IC50 against human TLR7, on human TLR8 and against human TLR9 were 31 nM, 55 nM and 3460 nM, respectively.

With `CC(C)c1c(-c2ccnc3[nH]ccc23)[nH]c2ccc(N3CCNCC3)cc12` [Example 128, 4-(3-isopropyl-5-(piperazin-1-yl)-1H-indol-2-yl)-1H-pyrrolo[2,3-b]pyridine], the 50% inhibitory concentration (IC50) on human TLR7 is 2.3 nM; at human TLR8, 0.41 nM; against human TLR9 it was 8100 nM.

Regarding `COc1ccc(-c2[nH]c3ccc(N4CCC(N(C)C)C4)cc3c2C(C)C)cc1OC` (stereo not drawn) [Example 120, 1-(2-(3,4-dimethoxyphenyl)-3-isopropyl-H-indol-5-yl)-N,N-dimethylpyrrolidin-3-amine], the IC50 was found to be 118 nM on human TLR7, 17 nM on human TLR8 and 3290 nM at human TLR9.

In the case of `CC(C)c1c(-c2ccnc3[nH]ncc23)[nH]c2ccc(N3CCNC3=O)cc12` [Example 27, 1-(3-isopropyl-2-(1H-pyrazolo[3,4-b]pyridin-4-yl)-1H-indol-5-yl)imidazolidin-2-one], the values for the half-inhibitory concentration (IC50) against human TLR7, on human TLR8 and against human TLR9 were 180 nM, 14 nM and over 50000 nM, respectively.

As to `CCNCCOc1ccc(Nc2ccc3[nH]c(-c4ccc(OC)c(OC)c4)c(C(C)C)c3c2)cc1` [Example 105, 2-(3,4-dimethoxyphenyl)-N-(4-(2-(ethylamino)ethoxy)phenyl)-3-isopropyl-1H-indol-5-amine], the 50% inhibitory concentration (IC50) on human TLR7 came to 1400 nM; against human TLR8, 17 nM; at human TLR9, 2260 nM.

Consider `CCc1c(-c2ccnc3[nH]ccc23)[nH]c2ccc(N3CCN(C4CCN(C(C)C)CC4)CC3)cc12` [Example 157, 4-(3-ethyl-5-(4-(1-isopropylpiperidin-4-yl)piperazin-1-yl)-1H-indol-2-yl)-1H-pyrrolo[2,3-b]pyridine], for which the IC50 came to 4230 nM on human TLR7, 635 nM against human TLR8 and 559 nM at human TLR9.

`CNCCN1CCN(c2ccc3[nH]c(-c4ccnc5[nH]ccc45)c(C(C)C)c3c2)CC1` [Example 138, 2-(4-(3-isopropyl-2-(1H-pyrrolo[2,3-b]pyridin-4-yl)-1H-indol-5-yl)piperazin-1-yl)-N-methylethan-1-amine]: the IC50 was 2 nM on human TLR7, 0.62 nM on human TLR8 and 939 nM on human TLR9.

As to `CCN1CCC(OC2CCN(c3ccc4[nH]c(-c5ccc(OC)c(OC)c5)c(C(C)C)c4c3)CC2)CC1` [Example 190, 2-(3,4-dimethoxyphenyl)-5-(4-((1-ethylpiperidin-4-yl)oxy)piperidin-1-yl)-3-isopropyl-1H-indole], the IC50 against human TLR7 was determined as 33 nM; against human TLR8, 35 nM; against human TLR9, 667 nM.
